Experimental data published in patent US6596863B2, “Medical composition containing nitroetheneamine Derivative or salt there of as active constituent” (Ishihara Sangyo Kaisha, Ltd., priority 1998, dated 2003).
Where two headings read alike, the source gives them in different places.

What was measured:
[1] = molecular target: T1, human MMP-9 (gelatinase B) (Homo sapiens, UniProt P14780); experiment: Inhibition activity against human MMP-9 (gelatinase B), fluorescent peptide substrate; format: biochemical
T1 construct: endogenous in cells; host or cells: HT1080 human fibrosarcoma cells (ATCC CCL-121), PMA-stimulated; enzyme purified from the culture supernatant
T1 sequence (P14780 107-707 limits assumed): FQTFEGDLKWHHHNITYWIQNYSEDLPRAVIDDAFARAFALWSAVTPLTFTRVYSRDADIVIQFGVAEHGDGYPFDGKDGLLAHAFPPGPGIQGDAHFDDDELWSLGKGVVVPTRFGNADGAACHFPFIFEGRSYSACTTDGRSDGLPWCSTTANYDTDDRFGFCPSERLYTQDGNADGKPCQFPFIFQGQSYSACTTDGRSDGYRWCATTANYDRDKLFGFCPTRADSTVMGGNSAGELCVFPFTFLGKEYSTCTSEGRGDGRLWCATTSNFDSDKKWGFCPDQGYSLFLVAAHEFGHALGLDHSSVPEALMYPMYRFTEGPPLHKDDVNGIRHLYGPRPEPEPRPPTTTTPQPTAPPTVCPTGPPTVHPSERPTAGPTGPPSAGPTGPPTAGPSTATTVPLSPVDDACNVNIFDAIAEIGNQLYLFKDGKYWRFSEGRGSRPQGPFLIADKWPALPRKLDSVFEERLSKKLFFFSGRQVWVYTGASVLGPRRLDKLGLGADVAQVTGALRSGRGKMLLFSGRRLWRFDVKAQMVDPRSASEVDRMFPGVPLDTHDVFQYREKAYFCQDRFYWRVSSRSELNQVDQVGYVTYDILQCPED
Procedure, shortened: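 MMP-9 purified from PMA-stimulated (10 ng/ml) HT1080 supernatant, or commercial enzyme (0.0125-0.025 unit/ml or 0.2 μg/ml final), incubated with compound and 10 μM final Mca-Pro-Leu-Gly-Leu-Dpa-Ala-Arg-NH2 fluorescent substrate at 37 °C for 3 h in the dark. Precursor enzyme activated with APMA.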

[2] = compounds of the formula (I), 1st measurement, read-out: MMP-9 inhibition activities IC50, 1st
[3] = compounds of the formula (I), 2nd measurement, read-out: MMP-9 inhibition activities IC50, 2nd
[4] = compounds of the formula (I), average of 1st and 2nd (or single measurement), read-out: MMP-9 inhibition activities IC50, Average
[5] = intermediates, compounds of the formula (IV), 1st measurement, read-out: MMP-9 inhibition activities IC50, 1st
[6] = intermediates, compounds of the formula (IV), 2nd measurement, read-out: MMP-9 inhibition activities IC50, 2nd
[7] = intermediates, compounds of the formula (IV), average of 1st and 2nd (or single measurement), read-out: MMP-9 inhibition activities IC50, Average

Structure (SMILES)	IC50 [1, 2] [µM]	IC50 [1, 3] [µM]	IC50 [1, 4] [µM]	melting point	IC50 [1, 5] [µM]	IC50 [1, 6] [µM]	IC50 [1, 7] [µM]
CNC(=C[N+](=O)[O-])NNc1cc(C(F)(F)F)cc(OCCN(C)C)n1 [Compound No. 100]	38.7	26	32.4	125 to 126 °C (dec.)	–	–	–
CNC(=C[N+](=O)[O-])NNc1cccc(Cl)n1 [compound 145]	1.7	4.1	2.9	221 °C (dec.)	–	–	–
CNC(=C[N+](=O)[O-])NNc1cc(OC)nc(OC)n1 [compound 101]	37.8	18.5	28.2	160 to 162 °C (dec.)	–	–	–
CNC(=C[N+](=O)[O-])NNc1cc(C(F)(F)F)cc(OCCSC)n1 [compound 189]	11.1	–	11.1	94 °C	–	–	–
O=[N+]([O-])C=C(NNc1cc(C(F)(F)F)cc(Cl)n1)NS(=O)(=O)c1ccccc1 [compound 159]	7.9	–	7.9	170 to 173 °C (dec.)	–	–	–
CNC(=C[N+](=O)[O-])NNc1cc(C(F)(F)F)cc(OCCOCCOC)n1 [compound 194]	4.9	8.4	6.7	128 °C	–	–	–
NNC(=C[N+](=O)[O-])Nc1ccc(O)cc1 [compound 76]	34	33.8	33.9	190 °C (dec.)	–	–	–
C=CCOc1cc(C(F)(F)F)cc(NNC(=C[N+](=O)[O-])NC)n1 [compound 130]	7.7	8.4	8.1	175 °C (dec.)	–	–	–
CNC(=C[N+](=O)[O-])NNc1ncnc2c(C)csc12 [compound 170]	5.6	–	5.6	216 °C (dec.)	–	–	–
O=[N+]([O-])C=C(NNc1cc(C(F)(F)F)cc(Cl)n1)NS(=O)(=O)c1ccc(-c2ccccc2)cc1 [compound 162]	6.3	–	6.3	171 to 174 °C	–	–	–
CNC(=C[N+](=O)[O-])NNc1cc(C(F)(F)F)cc(OCCOC(C)(C)C)n1 [compound 193]	10.5	–	10.5	170 °C (dec.)	–	–	–
CCOC(=O)c1ccc(NC(=C[N+](=O)[O-])NN)cc1 [compound 74]	49.6	49.4	49.5	155 °C (dec.)	–	–	–
CNC(=C[N+](=O)[O-])NNc1cccc(C(=O)O)c1 [compound 42]	41.4	40.7	41.4	250 °C	–	–	–
CNC(=C[N+](=O)[O-])NNc1cc(C(F)(F)F)cc(Oc2ccccc2)n1 [compound 126]	29.4	21.8	25.6	141 °C (dec.)	–	–	–
CNC(=C[N+](=O)[O-])NN=C(C)c1ccccn1 [compound 33]	30.6	31.9	31.8	170 °C (dec.)	–	–	–
CNC(=C[N+](=O)[O-])NNc1cccc(C(F)(F)F)n1 [compound 168]	7.1	7.3	7.2	197 °C (dec.)	–	–	–
CNC(=C[N+](=O)[O-])NNc1cc(C(F)(F)F)cc(OCc2ccccc2Cl)n1 [compound 174]	9	–	9	162 °C (dec.)	–	–	–
CNC(=C[N+](=O)[O-])NNc1nc2ccccc2s1 [compound 132]	1.2	2.4	1.8	158 °C (dec.)	–	–	–
CNC(=C[N+](=O)[O-])NN=Cc1ccc(C)cc1 [compound 137]	17.7	37.1	27.4	172 °C (dec.)	–	–	–
COc1ccc(NC(=C[N+](=O)[O-])NN)cc1 [compound 49]	15.6	18	16.8	195 °C (dec.)	–	–	–
CNC(=C[N+](=O)[O-])NN=Cc1ccc(C(F)(F)F)cc1 [compound 166]	7.8	–	7.8	188 to 189 °C	–	–	–
CCOC(=O)Cc1ccc(NC(=C[N+](=O)[O-])NN)cc1 [compound 73]	44.6	47.9	46.3	68 to 70 °C	–	–	–
CNC(=C[N+](=O)[O-])NNc1ccc(Cl)cn1 [compound 172]	0.82	1.1	0.96	206 °C (dec.)	–	–	–
CNC(=C[N+](=O)[O-])NNc1cc(C(F)(F)F)cc(OCCN2CCOCC2)n1 [compound 188]	6.2	–	6.2	166 °C (dec.)	–	–	–

Structure (SMILES)	IC50 [1, 2] [µM]	IC50 [1, 3] [µM]	IC50 [1, 4] [µM]	melting point	IC50 [1, 5] [µM]	IC50 [1, 6] [µM]	IC50 [1, 7] [µM]
CCCCOc1cc(C(F)(F)F)cc(NNC(=C[N+](=O)[O-])NC)n1 [compound 178]	11.8	12.5	12.2	161 °C (dec.)	–	–	–
NNC(=C[N+](=O)[O-])NS(=O)(=O)c1ccccc1 [compound 156]	38.3	41.8	40.1	210 °C (dec.)	–	–	–
CNC(=C[N+](=O)[O-])NNc1ccc([N+](=O)[O-])cc1 [compound 13]	20.1	16.1	18.1	186 °C (dec.)	–	–	–
NNC(=C[N+](=O)[O-])Nc1ccc2cn[nH]c2c1 [compound 152]	29.6	16.3	23	209 to 213 °C (dec.)	–	–	–
CNC(=C[N+](=O)[O-])NNc1ccc(C(F)(F)F)cc1 [compound 40]	13.5	28.7	21.1	190 °C	–	–	–
CNC(=C[N+](=O)[O-])NNc1cc(C(F)(F)F)nc(C(F)(F)F)c1 [compound 99]	20.5	30	25.3	180 to 181 °C (dec.)	–	–	–
COc1ccccc1NC(=C[N+](=O)[O-])SC [Intermediate 25]	–	–	–	128 to 130 °C	38.9	35.3	37.1
CNC(=C[N+](=O)[O-])NNc1nc(-c2ccccc2)nc2ccccc12 [compound 148]	33.5	21.7	27.6	272 °C (dec.)	–	–	–
CNC(=C[N+](=O)[O-])NNc1cccc(Cl)c1 [Compound No. 9]	42.2	43.9	43.1	191 °C (dec.)	–	–	–
CNC(=C[N+](=O)[O-])NN(C)c1ccc(C(F)(F)F)cn1 [compound 36]	19.7	24.3	22	153 to 154 °C	–	–	–
O=[N+]([O-])C=C(NCC1CCCO1)NNc1cc(C(F)(F)F)cc(Cl)n1 (stereo not drawn) [compound 169]	6	9.6	7.8	164 °C (dec.)	–	–	–
CNC(=C[N+](=O)[O-])NNc1cc(C(F)(F)F)cc(OCCOC(C)C)n1 [compound 196]	11.2	–	11.2	167 °C (dec.)	–	–	–
CNC(=C[N+](=O)[O-])NNc1ccccc1Cl [compound 8]	36.7	30.1	33.4	178 °C (dec.)	–	–	–
CNC(=C[N+](=O)[O-])NNC(O)C(F)(F)F (stereo not drawn) [compound 23]	42.5	54.8	48.7	144 to 145 °C	–	–	–
CNC(=C[N+](=O)[O-])NNc1cc(C(F)(F)F)cc(OCCSc2ccccc2)n1 [compound 195]	11.6	–	11.6	170 °C (dec.)	–	–	–
CSC(=C[N+](=O)[O-])Nc1ccc(O)cc1 [Intermediate 12]	–	–	–	193 °C (dec.)	25.3	24.5	24.9
NNC(=C[N+](=O)[O-])Nc1ccc(OC(F)(F)F)cc1 [Compound No. 61, N-(1-hydrazino-2-nitroethenyl)-4-trifluoromethoxyaniline]	39.7	42.2	40.9	161 °C (dec.)	–	–	–
CNC(=C[N+](=O)[O-])NN=Cc1ccc2c(c1)OCO2 [compound 140]	22.3	21.9	22.6	180 °C (dec.)	–	–	–
COc1cccc(NC(=C[N+](=O)[O-])NN)c1 [compound 52]	21.6	30.2	25.9	144 °C	–	–	–
COc1ccc(NC(=C[N+](=O)[O-])NNc2ccc(C(F)(F)F)cn2)cc1 [compound 41]	15.1	13.7	14.4	155 to 157 °C	–	–	–
CNC(=C[N+](=O)[O-])NN=Cc1ccc(C(=O)O)cc1 [compound 142]	20.4	22.4	21.4	210 °C (dec.)	–	–	–
COCCNC(=C[N+](=O)[O-])NNc1cc(C(F)(F)F)cc(Cl)n1 [compound 160]	9.4	–	9.4	175 to 178 °C (dec.)	–	–	–
CC(=C(NNc1cc(C(F)(F)F)cc(Cl)n1)NS(C)(=O)=O)[N+](=O)[O-] [compound 165]	3.2	–	3.2	30 to 33 °C	–	–	–
CNC(=C[N+](=O)[O-])NNc1cc(OCCOC)cc(C(F)(F)F)c1 [compound 182]	7	5.6	6.4	138 °C	–	–	–
